Assay results taken from article PMC6151700, “Novel FXa Inhibitor Identification through Integration of Ligand- and Structure-Based Approaches” (Molecules : A Journal of Synthetic Chemistry and Natural …, 2017).
Where two headings read alike, the source gives them in different places.

Experiments:
[1] = molecular target: T1, human FXa (Homo sapiens, UniProt P00742); test: Inhibition of FXa in vitro (SensoLyte Rh110 Factor Xa Assay Kit, fluorometric); assay type: biochemical; conditions: for Emax at 0.01 µM: at 10 nM, read-out: maximal effect of FXa inhibition
T1 construct: purchased Anaspec, Fremont, CA, USA
T1 sequence (P00742 235-488 limits assumed): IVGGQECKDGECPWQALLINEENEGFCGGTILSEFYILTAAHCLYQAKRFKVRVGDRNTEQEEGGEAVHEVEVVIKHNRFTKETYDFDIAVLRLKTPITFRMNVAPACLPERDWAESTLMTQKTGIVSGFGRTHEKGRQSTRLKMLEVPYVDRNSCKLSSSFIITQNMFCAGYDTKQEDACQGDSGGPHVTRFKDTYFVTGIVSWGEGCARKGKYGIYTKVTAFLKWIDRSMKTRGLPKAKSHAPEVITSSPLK
T1 sequence (P00742 41-179 partner limits assumed): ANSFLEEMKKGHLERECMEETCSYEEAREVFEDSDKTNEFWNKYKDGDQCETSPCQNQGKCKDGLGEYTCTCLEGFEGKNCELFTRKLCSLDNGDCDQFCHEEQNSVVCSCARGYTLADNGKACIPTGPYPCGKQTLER
Procedure: The selected compounds were measured in vitro for their factor Xa inhibition using chromogenic substrates. In a first trial the 30 compounds obtained from the developmental therapeutic program at NCI were dissolved in dimethyl sulfoxide (DMSO) at a concentration of 100 mM and then diluted in DMSO to 100 μM. The enzymatic assay was prepared according to manufacturer’s instructions (SensoLyte® Rh110 Factor Xa Assay Kit *Fluorometric*, Anaspec, Fremont, CA, USA). Inhibition control 1 mM was diluted 1:10 with the prepared buffer 1X obtaining the 0.1 mM inhibition control. The reagents containing compound dilutions, buffer and enzyme were mixed, centrifuged, and incubated for 30 min at 37 °C in 96-well microtiter plates. The enzyme reaction was initiated by adding appropriate substrate (FXa, S-2222). The 96-well plate for fluorescence was prepared with 40 μL of enzyme and 1 μL of each compound. To initiate the enzymatic reaction 50 μL of the factor Xa substrate was added to each well and the plate was read with a fluorescence microplate reader FLx800 (Biotek Inc., Winooski, VT, USA) programmed to read continuously for 30 min at 37 °C, at a wavelength of Ex/Em 490 nm/520 nm. […] The data obtained was analyzed with Prism v.7 (GraphPad Inc., La Jolla, CA, USA). In the second trial, the ten filtered and selected compounds) were prepared to span four different concentrations: 0.1–10 nM. The IC50 was calculated from the mean of triplicates from a dilution series of the compound with Prism v.7 (GraphPad Inc., La Jolla, CA, USA).

[2] = tested on: human plasma; test: In vitro coagulation assay, activated partial thromboplastin time (aPTT); conditions: 0.1 to 10 nM
Procedure: (§1) PT and aPTT assays were performed on an ACLTop (Instrumentation Laboratory) coagulation instrument. Recombiplastin 2G and aPTT-SP liquid were used according to standard procedures. Increasing concentrations of inhibitor ranging from 0.1 to 10 nM or solvent were added to human plasma and incubated for 10 min at 37 °C. Clotting times were measured and compared with those from the appropriate control plasma.

[3] = tested on: human plasma; test: In vitro coagulation assay, prothrombin time (PT); conditions: up to 10 nM
Procedure: as §1

[4] = tested on: tumor cell line; conditions: assayed 53 times, ChEMBL database ref 46, 47; cited from earlier work
[5] = read-out: FXa Activity Inhibition >50% at 1 μM
[6] = read-out: FXa Activity Inhibition >50% at 10 μM

## c1ccc(Cc2[nH]nc(-c3n[nH]c(Cc4ccccc4)c3-c3ccccc3)c2-c2ccccc2)cc1 [Compound 12]
[1]
  FXa Activity Inhibition >50% at 1 μM: (−) (FXa Activity Inhibition >50% at 1 μM)
  FXa Activity Inhibition >50% at 10 μM: (+) (FXa Activity Inhibition >50% at 10 μM)

## CS(=O)(=O)N1C[C@H](C(=O)Nc2ccc(Cl)cc2)[C@@H](C(=O)Nc2ccc(-n3ccccc3=O)cc2F)C1 [Compound 8]
[1]; 1 µM, Table S1, read-out: FXa Activity Inhibition >50% at 1µM
  inhibition at 1 µM: < 50%
[1]; 10 µM, Table S1, read-out: FXa Activity Inhibition >50% at 10µM
  inhibition at 10 µM: < 50%

## Cc1ccc(NC(=O)CCc2nnc3s/c(=C\c4cccc([N+](=O)[O-])c4)c(=O)n23)cc1 [Compound 3]
[1]
  FXa Activity Inhibition >50% at 1 μM: (−) (FXa Activity Inhibition >50% at 1 μM)
  FXa Activity Inhibition >50% at 10 μM: (+) (FXa Activity Inhibition >50% at 10 μM)

## O=C(C[n+]1ccn(CC(OCc2ccc(Cl)cc2Cl)c2ccc(Cl)cc2Cl)c1)c1ccc(F)cc1.[Cl-] (stereo not shown) [Compound 10]
[1]
  FXa Activity Inhibition >50% at 1 μM: (−) (FXa Activity Inhibition >50% at 1 μM)
  FXa Activity Inhibition >50% at 10 μM: (+) (FXa Activity Inhibition >50% at 10 μM)

## NC(=O)N/N=C(/Cc1nc2ccc(C(=O)c3ccccc3)cc2[nH]c1=O)C(=O)Nc1ccc(Br)cc1 [Compound 24]
[1]
  FXa Activity Inhibition >50% at 1 μM: (−) (FXa Activity Inhibition >50% at 1 μM)
  FXa Activity Inhibition >50% at 10 μM: (+) (FXa Activity Inhibition >50% at 10 μM)

## CCOc1ccc(NC(=O)CC2SC(=Nc3ccc(C)cc3)NC2=O)cc1 (stereo not shown) [Compound 9]
[1]
  FXa Activity Inhibition >50% at 1 μM: (−) (FXa Activity Inhibition >50% at 1 μM)
  FXa Activity Inhibition >50% at 10 μM: (+) (FXa Activity Inhibition >50% at 10 μM)

## O=C(NC[C@H]1CN(c2ccc(N3CCOCC3=O)cc2)C(=O)O1)c1ccc(Cl)s1 [Rivaroxaban, reference compound]
[2]
  aPTT: simultaneously prolonged aPTT and PT in a dose-dependent manner
[3]
  PT: simultaneously prolonged aPTT and PT in a dose-dependent manner
[1]
  Emax at 0.01 µM: 81%
[1]; [5]
  inhibition at 1 µM: > 50%
[1]; [6]
  inhibition at 10 µM: > 50%

## CC1=C(C(=O)CC(=O)C(=O)Nc2ccccc2)Sc2ccccc2N1 [Compound 5, 4-(3-methyl-4H-1,4-benzothiazin-2-yl)-2,4-dioxo-N-phenylbutanamide]
[4]
  tumor cell line growth inhibition: inactive in all of them
[2]
  aPTT: prolonged only aPTT
[3]
  PT: without effect on PT
[1]
  Emax at 0.01 µM: 58%
[1]; at 1 μM, read-out: FXa inhibition
  inhibition at 1 µM: > 50%
[1]; dose response curves, human FXa
  IC50: 2.02 nM
[1]; [5]
  inhibition at 1 µM: > 50%
[1]; [6]
  inhibition at 10 µM: > 50%

## Cc1cc(Cl)ccc1NC(=O)CC1SC(=NC(=O)c2ccccc2Cl)NC1=O (stereo not shown) [Compound 22]
[1]
  FXa Activity Inhibition >50% at 1 μM: (−) (FXa Activity Inhibition >50% at 1 μM)
  FXa Activity Inhibition >50% at 10 μM: (+) (FXa Activity Inhibition >50% at 10 μM)

## O=C(CC(=O)C1=CNc2ccccc2S1)C(=O)Nc1ccc(Cl)cc1 [Compound 23]
[1]
  FXa Activity Inhibition >50% at 1 μM: (−) (FXa Activity Inhibition >50% at 1 μM)
  FXa Activity Inhibition >50% at 10 μM: (+) (FXa Activity Inhibition >50% at 10 μM)

## O=C(NCc1ccc2ccc3cccnc3c2n1)c1ccc[n+](Cc2ccccc2)c1 [Compound 2]
[1]
  FXa Activity Inhibition >50% at 1 μM: (−) (FXa Activity Inhibition >50% at 1 μM)
  FXa Activity Inhibition >50% at 10 μM: (+) (FXa Activity Inhibition >50% at 10 μM)
